Test results taken from patent US20230263808A1 (UNIVERSITY OF FLORIDA RESEARCH FOUNDATION, INCORPORATED, priority 2020, published 2023).
Each block holds one compound with its values, some of them ahead of it.

Tests used:
C2C12 myotubes = experiment: Protein degradation: chymotrypsin-like proteasomal activity in C2C12 myotubes; assay type: cell-based, mouse
Procedure: (§1) A) C2C12 myotubes were assayed for chymotrypsin-like proteasomal activity. […] C) Quantitation of the ICW in panel B. D) ICW for surface expression of Glut4 on L6 myotubes. E) ICW for insulin-induced incorporation of puromycin into C2C12 myotube surface proteins. F-G) High-content imaging and analysis of C2C12 myoblasts stained with a Mitotracker dye. H) Assay reproducibility from screening 22 compounds on two separate occasions. The Pearson correlation coefficient, r, and its associated p-value is indicated.
(§2) C2C12 myocytes were used in all assays, except in the Glut4 translocation assay where L6 rat myocytes were used. ICW, In-Cell Western. Also see Methods.
To avoid such effects on myogenesis, we switched myoblasts to differentiation media, and then on day 4, added 10 μM cytarabine, a chemotherapy agent that kills dividing cells, and then adding GCs on day 6 or 7 and completing assays in day 8 (FIG. 8).
Physiologically, the effects of GCs on protein balance and Glut4 translocation vary in vivo depending upon the stressor. For example, GCs mediate atrophy in response to fasting but not exercise. […] To assess protein degradation, we measured chymotrypsin-like proteasomal activity (FIG. 2, A). The activating phosphorylation of AKT at Thr308 (pAKT) was measured using a LI-COR In-Cell Western assay (FIG. 2, B and C). The rate-limiting step in insulin-mediated glucose uptake is the translocation of the glucose transporter, Glut4, to the surface membrane, which we also measured by In-Cell Western without permeabilizing the myotubes (FIG. 2, D). Surface Sensing of Translation (SUnSET) (Schmidt et al., Nat Methods 6, 275-277, 2009) assay was used to measure protein synthesis by In-Cell Western, following treatment of myotubes with a low dose of puromycin, which incorporates into translating proteins, but at a low enough level to provide a readout for global protein synthesis (FIG. 2, E). […]

L6 myotubes = experiment: Glut4 translocation to the myotube surface (In-Cell Western); assay type: cell-based, rat
Procedure: as §1, §2
Physiologically, the effects of GCs on protein balance and Glut4 translocation vary in vivo depending upon the stressor. For example, GCs mediate atrophy in response to fasting but not exercise. […] To assess protein degradation, we measured chymotrypsin-like proteasomal activity (FIG. 2, A). The activating phosphorylation of AKT at Thr308 (pAKT) was measured using a LI-COR In-Cell Western assay (FIG. 2, B and C). The rate-limiting step in insulin-mediated glucose uptake is the translocation of the glucose transporter, Glut4, to the surface membrane, which we also measured by In-Cell Western without permeabilizing the myotubes (FIG. 2, D). Surface Sensing of Translation (SUnSET) (Schmidt et al., Nat Methods 6, 275-277, 2009) assay was used to measure protein synthesis by In-Cell Western, following treatment of myotubes with a low dose of puromycin, which incorporates into translating proteins, but at a low enough level to provide a readout for global protein synthesis (FIG. 2, E). Lastly, we developed a high-content imaging assay in myoblasts stained with a MitoTracker dye, so that individual mitochondrial networks could be visualized with adequate resolution to quantitate area, segmentation, branching, and fluorescence intensity which is a measure of mitochondrial membrane potential (ψm).

androgen receptor (AR) = target: T1, androgen receptor (AR) (Homo sapiens, UniProt P10275); experiment: AR-luciferase assay in 293T cells; assay type: cell-based
T1 construct: expressed in transfected cells; host or cells: 293T
T1 sequence (P10275 1-920): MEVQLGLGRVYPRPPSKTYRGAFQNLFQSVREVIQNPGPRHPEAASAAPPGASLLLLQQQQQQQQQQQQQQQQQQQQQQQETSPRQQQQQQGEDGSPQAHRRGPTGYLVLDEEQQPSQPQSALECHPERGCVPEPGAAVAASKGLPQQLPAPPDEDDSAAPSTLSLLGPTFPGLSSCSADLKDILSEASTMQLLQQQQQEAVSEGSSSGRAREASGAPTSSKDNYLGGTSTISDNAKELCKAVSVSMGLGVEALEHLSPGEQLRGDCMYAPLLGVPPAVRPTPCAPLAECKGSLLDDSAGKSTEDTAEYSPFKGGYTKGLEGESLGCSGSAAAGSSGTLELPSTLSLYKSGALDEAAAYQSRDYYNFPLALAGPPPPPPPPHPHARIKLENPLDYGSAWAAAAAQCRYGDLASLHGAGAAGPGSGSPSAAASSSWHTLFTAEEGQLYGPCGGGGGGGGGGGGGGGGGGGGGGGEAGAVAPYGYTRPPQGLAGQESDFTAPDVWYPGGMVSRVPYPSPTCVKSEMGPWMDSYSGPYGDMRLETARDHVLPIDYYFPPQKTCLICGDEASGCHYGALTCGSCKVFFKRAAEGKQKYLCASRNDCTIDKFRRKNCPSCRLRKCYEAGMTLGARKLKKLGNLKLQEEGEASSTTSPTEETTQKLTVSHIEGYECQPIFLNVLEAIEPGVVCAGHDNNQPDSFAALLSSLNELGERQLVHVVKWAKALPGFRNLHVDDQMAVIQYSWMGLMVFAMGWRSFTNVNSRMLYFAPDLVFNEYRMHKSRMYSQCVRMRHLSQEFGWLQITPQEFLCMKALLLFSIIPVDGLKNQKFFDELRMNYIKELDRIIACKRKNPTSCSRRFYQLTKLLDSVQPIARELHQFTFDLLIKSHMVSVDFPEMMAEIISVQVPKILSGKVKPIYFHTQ
Procedure: For native gene expression, C2C12 myotubes were treated compounds for 24 h. For MMTV-Luc assay, steroid-deprived 293T cells were co-transfected with a GR expression plasmid and an MMTV-driven luciferase reporter plasmid. The next day, cells were treated with compounds for 24 hrs. Each point represents the average of triplicate biological measurements for a separate compound. B) AR Luc assay development. Steroid-deprived 293T cells were transfected with AR expression plasmid and an ARR3-tk-driven luciferase reporter. The next day cells were treated with increasing doses of the indicated compounds. Data shown are mean+SD of triplicate measurements. C) AR-Luc assay identified 5 GCs with some AR activity.
For inclusion in the statistical analyses, assays were required to show high reproducibility, with a Pearson correlation >0.8 between different experiments (FIG. 2, H; FIG. 9, A). […] We also analyzed the effects of the compounds on expression of Fkbp5, Pdk4, and Klf15 mRNAs in C2C12 myotubes, and MMTV-luciferase and androgen receptor (AR) driven-luciferase activity in 293T cells. […] We also analyzed the effects of compounds on nuclear translocation of GR using a quantitative HTS approach (Htun et al., Proc. Natl. Acad. Sci. USA 93, 4845-4850, 1996). […]

SMILES: C=CCOC1CC2(C)C(CCC2(O)C#CC)C2CCc3cc(C(=O)Nc4cccnc4C)ccc3C12 (stereo not drawn) [SR11466]
effect on protein degradation (proteasomal) (C2C12 myotubes): no effect

SMILES: CC#CC1(O)CCC2C3CCc4cc(C(=O)Nc5cccnc5C)ccc4C3C(OCc3ccccc3Cl)CC21C (stereo not drawn) [SR16024]
effect on Glut4 translocation (L6 myotubes): no inhibition

AR activity (androgen receptor (AR)): weak AR antagonist
SMILES: CC#CC1(O)CCC2C3CCc4cc(C(=O)Nc5cccnc5C)ccc4C3C(OCc3ccc(Cl)cc3)CC21C (stereo not drawn) [SR16025]
